Reference: ChEMBL document CHEMBL5325413, “Optimization of BAX trigger site activator BTSA1 with improved antitumor potency and in vitro ADMET properties” (Eur J Med Chem, 2023)
The source made the active and inactive calls. The calls are words filed in the database; no cut-off is given here.

How the values were obtained:
[1] = human, microsomes, 1 h, 100 µM
[2] = human, 1 h, 100 µM
[3] = mouse, microsomes, 1 h, 100 µM
[4] = mouse, 1 h, 100 µM
[5] = in vitro; settings: human
[6] = in vitro; settings: mouse
[7] = Stability in rat plasma assessed as compound remaining measured immediately; format: ADME, cell-free; settings: read-out: Stability
[8] = Stability in rat plasma assessed as compound remaining measured after 10 mins; format: ADME, cell-free; settings: read-out: Stability
[9] = Stability in rat plasma assessed as compound remaining measured after 30 mins; format: ADME, cell-free; settings: read-out: Stability
[10] = Stability in rat plasma assessed as compound remaining measured after 60 mins; format: ADME, cell-free; settings: read-out: Stability
[11] = Stability in rat plasma assessed as compound remaining measured after 120 mins; format: ADME, cell-free; settings: read-out: Stability
[12] = Stability in rat plasma assessed as half life; format: ADME, cell-free
[13] = tested on: A549; test: Induction of apoptosis in human A549 cells assessed as live cells at 10 uM incubated for 48 hrs by Annexin V-FITC/PI staining based flow cytometry analysis (reference value: 96.4%); format: functional
[14] = tested on: A549; test: Antiproliferative activity against human A549 cells assessed as cell growth inhibition incubated for 72 hrs by MTT assay; format: functional
[15] = tested on: HCT-116; test: Antiproliferative activity against human HCT-116 cells assessed as cell growth inhibition incubated for 72 hrs by MTT assay; format: functional
[16] = tested on: PC-3; test: Antiproliferative activity against human PC-3 cells assessed as cell growth inhibition incubated for 72 hrs by MTT assay; format: functional
[17] = tested on: A549; test: Induction of apoptosis in human A549 cells assessed as early apoptotic cells at 10 uM incubated for 48 hrs by Annexin V-FITC/PI staining based flow cytometry analysis (reference value: 0.708%); format: functional
[18] = tested on: A549; test: Induction of apoptosis in human A549 cells assessed as late apoptotic cells at 10 uM incubated for 48 hrs by Annexin V-FITC/PI staining based flow cytometry analysis (reference value: 2.15%); format: functional
[19] = tested on: A549; test: Induction of apoptosis in human A549 cells assessed as dead cells at 10 uM incubated for 48 hrs by Annexin V-FITC/PI staining based flow cytometry analysis (reference value: 0.739%); format: functional
[20] = tested on: A549; test: Antiproliferative activity against human A549 cells assessed as reduction in cell viability at 5 to 25 uM by MTT assay; format: functional, cell-based; settings: dose 5-25 µM, time 24-72 hrs, TDE = time-dependent effect
[21] = tested on: NCI-H1581; test: Antiproliferative activity against human NCI-H1581 cells expressing BAX assessed as cell growth inhibition incubated for 72 hrs by MTT assay; format: functional
[22] = tested on: MDA-MB-231; test: Antiproliferative activity against human MDA-MB-231 cells expressing BAX assessed as cell growth inhibition incubated for 72 hrs by MTT assay; format: functional
[23] = tested on: K562; test: Antiproliferative activity against human K562 cells expressing BAX assessed as cell growth inhibition incubated for 72 hrs by trypan blue cell counting analysis; format: functional
[24] = tested on: MV4-11; test: Antiproliferative activity against human MV4-11 cells expressing BAX assessed as cell growth inhibition incubated for 72 hrs by trypan blue cell counting analysis; format: functional
[25] = tested on: THP-1; test: Antiproliferative activity against human THP-1 cells expressing BAX assessed as cell growth inhibition incubated for 72 hrs by trypan blue cell counting analysis; format: functional
[26] = tested on: A549; test: Inhibition of colony formation in human A549 cells at 20 uM incubated for 2 weeks by crystal violet staining based analysis; format: functional, cell-based
[27] = tested on: A549; test: Induction of apoptosis in human A549 cells assessed as live cells at 20 uM incubated for 48 hrs by Annexin V-FITC/PI staining based flow cytometry analysis (reference value: 95.9 %); format: functional
[28] = tested on: A549; test: Induction of apoptosis in human A549 cells assessed as early apoptotic cells at 20 uM incubated for 48 hrs by Annexin V-FITC/PI staining based flow cytometry analysis (reference value: 1.09 %); format: functional
[29] = tested on: A549; test: Induction of apoptosis in human A549 cells assessed as late apoptotic cells at 20 uM incubated for 48 hrs by Annexin V-FITC/PI staining based flow cytometry analysis (reference value: 2.52%); format: functional
[30] = tested on: A549; test: Induction of apoptosis in human A549 cells assessed as dead cells at 20 uM incubated for 48 hrs by Annexin V-FITC/PI staining based flow cytometry analysis (reference value: 0.535%); format: functional
[31] = tested on: A549; test: Induction of apoptosis in human A549 cells assessed as live cells at 40 uM incubated for 48 hrs by Annexin V-FITC/PI staining based flow cytometry analysis (reference value: 95.9 %); format: functional
[32] = tested on: A549; test: Induction of apoptosis in human A549 cells assessed as late apoptotic cells at 40 uM incubated for 48 hrs by Annexin V-FITC/PI staining based flow cytometry analysis (reference value: 2.52%); format: functional
[33] = tested on: A549; test: Induction of apoptosis in human A549 cells assessed as dead cells at 40 uM incubated for 48 hrs by Annexin V-FITC/PI staining based flow cytometry analysis (reference value: 0.535%); format: functional
[34] = tested on: A549; test: Induction of apoptosis in human A549 cells assessed as total apoptotic cells at 10 uM incubated for 48 hrs by Annexin V-FITC/PI staining based flow cytometry analysis (reference value: 2.86%); format: functional
[35] = tested on: A549; test: Induction of apoptosis in human A549 cells assessed as total apoptotic cells at 20 uM incubated for 48 hrs by Annexin V-FITC/PI staining based flow cytometry analysis (reference value: 4.26%); format: functional
[36] = tested on: A549; test: Induction of apoptosis in human A549 cells assessed as total apoptotic cells at 40 uM incubated for 48 hrs by Annexin V-FITC/PI staining based flow cytometry analysis (reference value: 4.26%); format: functional
[37] = tested on: A549; test: Induction of apoptosis in human A549 cells assessed as cell rounding at 20 to 80 uM incubated for 48 hrs by Hoechst 33342 staining based fluorescence microscopic analysis; format: functional; settings: dose 20-80 µM
[38] = tested on: A549; test: Induction of apoptosis in human A549 cells assessed as formation of apoptotic bodies at 20 to 80 uM incubated for 48 hrs by Hoechst 33342 staining based fluorescence microscopic analysis; format: functional, cell-based; settings: dose 20-80 µM
[39] = tested on: A549; test: Induction of apoptosis in human A549 cells assessed as nuclear fragmentation at 20 to 80 uM incubated for 48 hrs by Hoechst 33342 staining based fluorescence microscopic analysis; format: functional, cell-based; settings: dose 20-80 µM
[40] = tested on: A549; test: Induction of cell cycle arrest in human A549 cells assessed as accumulation of cells at G0/G1 phase at 10 uM incubated for 48 hrs by RNase/PI staining based flow cytometry analysis (reference value: 54.82%); format: functional
[41] = tested on: A549; test: Induction of cell cycle arrest in human A549 cells assessed as accumulation of cells at S phase at 10 uM incubated for 48 hrs by RNase/PI staining based flow cytometry analysis (reference value: 26.01%); format: functional
[42] = tested on: A549; test: Induction of cell cycle arrest in human A549 cells assessed as accumulation of cells at G2/M phase at 10 uM incubated for 48 hrs by RNase/PI staining based flow cytometry analysis (reference value: 18.97%); format: functional
[43] = Metabolic stability in human liver microsomes assessed as parent compound remaining at 100 uM incubated for 60 mins in presence of NADPH by LC-MS/MS analysis
[44] = Metabolic stability in human liver microsomes assessed as parent compound remaining at 100 uM incubated for 60 mins in absence of NADPH by LC-MS/MS analysis
[45] = Metabolic stability in mouse liver microsomes assessed as parent compound remaining at 100 uM incubated for 60 mins in presence of NADPH by LC-MS/MS analysis
[46] = Metabolic stability in mouse liver microsomes assessed as parent compound remaining at 100 uM incubated for 60 mins in absence of NADPH by LC-MS/MS analysis

In the case of `O=C(O)Cc1ccccc1Nc1c(Cl)cccc1Cl` [DICLOFENAC], the CLint [1] is reported as 203 µL/min/mg, the CLH ([2]; Liver) is reported as 183 mL/min/kg and the CLint [3] is reported as 29.7 µL/min/mg. It also gave a CLH ([4]; Liver) of 0.1176 mL/min/kg, a half-life at 1 h, 100 µM ([5]; microsomes) of 6.8 min and a half-life at 1 h, 100 µM ([6]; microsomes) of 46.7 min.

For `CCOC(=O)[C@H](CCc1ccccc1)N[C@@H](C)C(=O)N1CCC[C@H]1C(=O)O.O=C(O)/C=C\C(=O)O` [ENALAPRIL MALEATE], the remaining at 0 min [7] was 100%, the remaining at 10 min [8] was 58.9% and the remaining at 0.5 h [9] was 19.2%. For the same molecule, the remaining at 1 h [10] was 2.7%, the remaining at 2 h [11] was 0% and the half-life [12] was 10 min.

`O=C1/C(=N\Nc2nccs2)C(c2ccccc2)=NN1c1nc(-c2ccccc2)cs1` showed an Activity [13] of 95.5%, a GI50 [14] of 14.5 µM and a GI50 [15] of 12.5 µM. It also gave a GI50 [16] of 14.3 µM, an Activity [17] of 0.844% and an Activity [18] of 2.97%. The Activity [19] was 0.651%, the Activity [20] was “Tde” and the GI50 [21] was 6.22 µM. It also gave a GI50 [22] greater than 20 µM, a GI50 [23] greater than 4 µM and a GI50 [24] of 6.29 µM. The GI50 [25] was greater than 10 µM, the inhibition [26] was “Active” and the Activity [27] was 93.6%. For the same molecule, the Activity [28] was 3.21%, the Activity [29] was 2.7% and the Activity [30] was 0.486%. The Activity [31] was 82.2%, the Activity [32] was 10.2% and the Activity [33] was 2.82%. The Activity [34] was 3.81%, the Activity [35] was 5.91% and the Activity [36] was 14.92%. For the same molecule, the Activity [37] was “Active”, the Activity [38] was “Active” and the Activity [39] was “Active”. The Activity [40] was 57.42%, the Activity [41] was 24.77% and the Activity [42] was 10.12%. The remaining at 1 h, 100 µM [43] was 55.6%, the remaining at 1 h, 100 µM [44] was 94.2% and the remaining at 1 h, 100 µM [45] was 59.4%. It also gave a remaining at 1 h, 100 µM [46] of 84.8%, a remaining at 0 min [7] of 100% and a remaining at 10 min [8] of 101%. The remaining at 0.5 h [9] was 98.2%, the remaining at 1 h [10] was 100% and the remaining at 2 h [11] was 98.6%. For the same molecule, the half-life [12] was greater than 289 min, the CLint [1] was 21.3 µL/min/mg and the CLint [3] was 15.8 µL/min/mg. It also gave a CLH [4] of 0.0626 mL/min/kg, a half-life at 1 h, 100 µM ([5]; liver microsomes) of 65 min and a half-life at 1 h, 100 µM ([6]; liver microsomes) of 87.6 min.

Work on `C[C@]12CC[C@H]3[C@@H](CCC4=CC(=O)CC[C@@]43C)[C@@H]1CC[C@@H]2O` [TESTOSTERONE] yielded a CLint [1] of 106 µL/min/mg, a CLH [2] of 95.5 mL/min/kg and a CLH [4] of 1.4374 mL/min/kg.
